Test results as given in patent publication US9376442B2, “Methylpyrrolopyrimidinecarboxamides” (Takeda GmbH, priority 2009, dated 2016).

Each molecule was assayed against T1, PDE5A1 (Homo sapiens, UniProt O76074) (assay: Inhibition of type 5 phosphodiesterase (PDE5) activity, modified SPA test with human platelet lysate). Conditions: 0.5 μM cGMP, read-out: PDE5A1 inhibitory values [measured as −log IC50 (mol/l)] (converted).
T1 construct: from tissue; host or cells: human platelets from fresh donor blood (10,000 x g supernatant of sonicated lysate)
Type: biochemical
Protocol: Method for Measuring Inhibition of the Type 5 Phosphodiesterase (PDE5) Activity:
As a source for human PDE5, platelets are used. For that purpose, 150 ml fresh blood from human donors anticoagulated with citrate [final concentration 0.3% (w/v)] is centrifuged at 200 g for 10 min to obtain the so-called platelet-rich-plasma (PRP) as a supernatant. 1/10 volume of ACD solution (85 mM Na3-citrate, 111 mM D-glucose, 71 mM citric acid, pH 4.4) is added to 9/10 volume of PRP. After centrifugation (1,400 g, 10 min) the cell pellet is resuspended in 3 ml homogenization buffer (NaCl 140 mM, KCl 3.8 mM, EGTA (ethylene glycol tetraacetic acid) 1 mM, MgCl2 1 mM, Tris-HCl 20 mM, beta-mercaptoethanol 1 mM, pH 8.2) plus protease-inhibitor mix giving rise to the final concentrations of 0.5 mM Pefablock (Roche), 10 μM Leupeptin, 5 μM Trypsininhibitor, 2 mM Benzamidin and 10 μM Pepstatin A. The suspension is sonified and thereafter centrifuged for 15 min at 10,000 g. The resulting supernatant (platelet lysate) is used for enzymatic testings.
PDE5A1 activity is inhibited by the compounds of the present subject matter in a modified SPA (scintillation proximity assay) test, supplied by Amersham Biosciences (see procedural instructions “phosphodiesterase [3H]cAMP SPA enzyme assay, code TRKQ 7090”), carried out in 96-well microtitre plates (MTP's). The test volume is 100 μl and contains 20 mM Tris buffer (pH 7.4), 0.1 mg of BSA (bovine serum albumin)/ml, 5 mM Mg^2+, 1 μM motapizone, 10 nM PDE2 inhibitor 2-(3,4-dimethoxybenzyl)-7-[(1R,2R)-2-hydroxy-1-(2-phenylethyl)propyl]-5-methylimidazo[5,1-f][1,2,4]triazin-4(3H)-one, 0.5 μM cGMP (cyclic guanosine monophosphate) (including about 50,000 cpm of [3H]cGMP as a tracer), 1 μl of the respective compound dilution in dimethylsulfoxide (DMSO) and sufficient PDE5-containing platelet lysat (10,000×g supernatant, see above) to ensure that 10-20 wt % of the cGMP is converted under the said experimental conditions. […] After a preincubation of 5 min at 37° C., the reaction is started by adding the substrate (cGMP) and the assay is incubated for a further 15 min; after that, it is stopped by adding SPA beads (50 μl). In accordance with the manufacturer's instructions, the SPA beads had previously been resuspended in water, but are then diluted 1:3 (v/v) in water; the diluted solution also contains 3 mM […] (IBMX) to ensure a complete PDE activity stop. After the beads have been sedimented (>30 min), the MTP's are analyzed in commercially available luminescence detection devices. The corresponding IC50 values of the compounds for the inhibition of PDE activity are determined from the concentration-effect curves by means of non-linear regression.

Compound | IC50 [nM]
CCC(=O)N[C@H]1CC[C@@H](NC(=O)c2c(C)[nH]c3c(-c4cc(OC)c(F)cc4OCC4CC4)ncnc23)CC1 [Example E111, 4-[2-(Cyclopropylmethoxy)-4-fluoro-5-methoxyphenyl]-6-methyl-N-[cis-4-(propionylamino)cyclohexyl]-5H-pyrrolo[3,2-d]pyrimidine-7-carboxamide] | < 1
CC(=O)N1C[C@@H](O)[C@H](NC(=O)c2c(C)[nH]c3c(-c4ccc(F)cc4OCC4CC4)ncnc23)C1 (relative stereo) [Example E31, N-[(3R*,4R*)-1-acetyl-4-hydroxypyrrolidin-3-yl]-4-[2-(cyclopropylmethoxy)-4-fluorophenyl]-6-methyl-5H-pyrrolo[3,2-d]pyrimidine-7-carboxamide] | 1 to 10
CCC(=O)N1C[C@@H](O)[C@H](NC(=O)c2c(C)[nH]c3c(-c4cc(OC)ccc4OCC4CC4)ncnc23)C1 (relative stereo) [Example E193, 4-[2-(Cyclopropylmethoxy)-5-methoxyphenyl]-N-[(3R*,4R*)-4-hydroxy-1-propionylpyrrolidin-3-yl]-6-methyl-5H-pyrrolo[3,2-d]pyrimidine-7-carboxamide] | 1 to 10
COc1cc(OCC2CC2)c(-c2ncnc3c(C(=O)N[C@H]4CC[C@H](NC(C)=O)CC4)c(C)[nH]c23)cc1F [Example E135, N-(trans-4-Acetamidocyclohexyl)-4-[2-(cyclopropylmethoxy)-5-fluoro-4-methoxyphenyl]-6-methyl-5H-pyrrolo[3,2-d]pyrimidine-7-carboxamide] | < 1
COCC(=O)N1CCC(NC(=O)c2c(C)[nH]c3c(-c4cc(OC)c(F)cc4OCC4CC4)nc(C)nc23)CC1 [Example E175, 4-[2-(Cyclopropylmethoxy)-4-fluoro-5-methoxyphenyl]-N-[1-(methoxyacetyl)piperidin-4-yl]-2,6-dimethyl-5H-pyrrolo[3,2-d]pyrimidine-7-carboxamide] | < 1
CCC(=O)N1CCC(NC(=O)c2c(C)[nH]c3c(-c4cc(C)c(F)cc4OCC4CC4)ncnc23)CC1 [Example E120, 4-[2-(Cyclopropylmethoxy)-4-fluoro-5-methylphenyl]-6-methyl-N-(1-propanoylpiperidin-4-yl)-5H-pyrrolo[3,2-d]pyrimidine-7-carboxamide] | < 1
CCC(=O)N[C@H]1CC[C@@H](NC(=O)c2c(C)[nH]c3c(-c4cc(C)c(F)cc4OCC4CC4)ncnc23)CC1 [Example E126, 4-[2-(Cyclopropylmethoxy)-4-fluoro-5-methylphenyl]-6-methyl-N-[cis-4-(propanoylamino)cyclohexyl]-5H-pyrrolo[3,2-d]pyrimidine-7-carboxamide] | < 1
CCC(=O)N1CCC(NC(=O)c2c(C)[nH]c3c(-c4ccc(F)cc4OCC4CC4)ncnc23)CC1 [Example E20, 4-[2-(Cyclopropylmethoxy)-4-fluorophenyl]-6-methyl-N-(1-propionylpiperidin-4-yl)-5H-pyrrolo[3,2-d]pyrimidine-7-carboxamide] | < 1
CCC(=O)N1C[C@@H](O)[C@H](NC(=O)c2c(C)[nH]c3c(-c4ccc(F)cc4OCC4CC4)ncnc23)C1 (relative stereo) [Example E32, 4-[2-(Cyclopropylmethoxy)-4-fluorophenyl]-N-[(3R*,4R*)-4-hydroxy-1-propanoylpyrrolidin-3-yl]-6-methyl-5H-pyrrolo[3,2-d]pyrimidine-7-carboxamide] | 1 to 10
COc1cc(-c2ncnc3c(C(=O)N[C@H]4CC[C@@H](NC(C)=O)CC4)c(C)[nH]c23)c(OCC2CC2)cc1F [Example E110, N-(cis-4-Acetamidocyclohexyl)-4-[2-(cyclopropylmethoxy)-4-fluoro-5-methoxyphenyl]-6-methyl-5H-pyrrolo[3,2-d]pyrimidine-7-carboxamide] | < 1
Cc1[nH]c2c(-c3c(OCC4CC4)ccc4c3OCO4)ncnc2c1C(=O)N[C@H]1CC[C@H](NC(=O)[C@H](C)O)CC1 [Example F4, 4-[5-(cyclopropylmethoxy)-1,3-benzodioxol-4-yl]-N-(trans-4-{[(2S)-2-hydroxypropanoyl]amino}cyclohexyl)-6-methyl-5H-pyrrolo[3,2-d]pyrimidine-7-carboxamide] | < 1
CCOC(=O)N[C@H]1CC[C@@H](NC(=O)c2c(C)[nH]c3c(-c4c(OCC5CC5)ccc5c4OCO5)ncnc23)CC1 [Example E12, Ethyl {cis-4-[({4-[5-(cyclopropylmethoxy)-1,3-benzodioxol-4-yl]-6-methyl-5H-pyrrolo[3,2-d]pyrimidin-7-yl}carbonyl)amino]cyclohexyl}carbamate] | < 1
COCC(=O)N1CC[C@@H](NC(=O)c2c(C)[nH]c3c(-c4ccc(OC)cc4OCC4CC4)ncnc23)C1 [Example E62, 4-[2-(Cyclopropylmethoxy)-4-methoxyphenyl]-N-[(3R)-1-(methoxyacetyl)pyrrolidin-3-yl]-6-methyl-5H-pyrrolo[3,2-d]pyrimidine-7-carboxamide] | < 1
CC(=O)N[C@H]1CC[C@H](NC(=O)c2c(C)[nH]c3c(-c4c(OCC5CC5)ccc5c4OCO5)ncnc23)CC1 [Example E5, N-(trans-4-acetamidocyclohexyl)-4-[5-(cyclopropylmethoxy)-1,3-benzodioxol-4-yl]-6-methyl-5H-pyrrolo[3,2-d]pyrimidine-7-carboxamide] | < 1
COCC(=O)N1C[C@@H](O)[C@H](NC(=O)c2c(C)[nH]c3c(-c4ccc(OC)cc4OCC4CC4)ncnc23)C1 (relative stereo) [Example E65, 4-[2-(Cyclopropylmethoxy)-4-methoxyphenyl]-N-[(3R*,4R*)-4-hydroxy-1-(methoxyacetyl)pyrrolidin-3-yl]-6-methyl-5H-pyrrolo[3,2-d]pyrimidine-7-carboxamide] | < 1
CCOc1ccc(F)cc1-c1ncnc2c(C(=O)NC3CCN(C(C)=O)CC3)c(C)[nH]c12 [Example E52, N-(1-acetylpiperidin-4-yl)-4-(2-ethoxy-5-fluorophenyl)-6-methyl-5H-pyrrolo[3,2-d]pyrimidine-7-carboxamide] | 1 to 10
CCc1ccc(OCC2CC2)c(-c2ncnc3c(C(=O)NC4CCN(C(=O)CO)CC4)c(C)[nH]c23)c1 [Example F91] | < 1
COc1cc(OCC2CC2)c(-c2ncnc3c(C(=O)N[C@@H]4CN(C(=O)CO)C[C@H]4O)c(C)[nH]c23)cc1F (relative stereo) [Example F117, 4-[2-(Cyclopropylmethoxy)-5-fluoro-4-methoxyphenyl]-N-[(3R*,4R*)-1-glycoloyl-4-hydroxypyrrolidin-3-yl]-6-methyl-5H-pyrrolo[3,2-d]pyrimidine-7-carboxamide] | < 1
COCC(=O)N1CC[C@@H](NC(=O)c2c(C)[nH]c3c(-c4cc(OC)c(F)cc4OCC4CC4)ncnc23)[C@H](O)C1 (relative stereo) [Example E115, 4-[2-(cyclopropylmethoxy)-4-fluoro-5-methoxyphenyl]-N-[(3R*,4R*)-3-hydroxy-1-(methoxyacetyl)piperidin-4-yl]-6-methyl-5H-pyrrolo[3,2-d]pyrimidine-7-carboxamide] | < 1
CC(=O)c1ccc(OCC2CC2)c(-c2ncnc3c(C(=O)NC4CCN(C(=O)[C@H](C)O)CC4)c(C)[nH]c23)c1 [Example F103, 4-[5-Acetyl-2-(cyclopropylmethoxy)phenyl]-N-{1-[(2S)-2-hydroxypropanoyl]piperidin-4-yl}-6-methyl-5H-pyrrolo[3,2-d]pyrimidine-7-carboxamide] | < 1
COc1ccc(-c2ncnc3c(C(=O)NC4CCN(C(=O)CO)CC4)c(C)[nH]c23)c(OCC2CC2)c1 [Example F34, 4-[2-(Cyclopropylmethoxy)-4-methoxyphenyl]-N-(1-glycoloylpiperidin-4-yl)-6-methyl-5H-pyrrolo[3,2-d]pyrimidine-7-carboxamide] | < 1
COc1cc(-c2ncnc3c(C(=O)N[C@@H]4CN(C(C)=O)C[C@H]4O)c(C)[nH]c23)c(OCC2CC2)cc1F (relative stereo) [Example E183, N-[(3R*,4R*)-1-Acetyl-4-hydroxypyrrolidin-3-yl]-4-[2-(cyclopropylmethoxy)-4-fluoro-5-methoxyphenyl]-6-methyl-5H-pyrrolo[3,2-d]pyrimidine-7-carboxamide] | < 1
